Columns and labels:
PRMT5 [1] = target: T1, PRMT5 (Homo sapiens, UniProt O14744); experiment: PRMT5 biochemical IC50 assay with no cofactor; conditions: PRMT5, no cofactor
T1 construct: purchased Viva (custom protein)
Source text: Table 1 indicates IC50 values (μM) against PRMT5 for exemplary compounds in the presence of SAM as cofactor, with no cofactor, and with MTA as cofactor, respectively (columns 4-6). […] Ki values can be calculated from the IC50 values as described in the Examples section. As detailed in the Examples section, for the assay performed in the presence of SAM, IC50=Ki×1.5 (Ki=IC50/1.5).

PRMT5 [2] = target: T1, PRMT5; experiment: PRMT5 biochemical IC50 assay with MTA as cofactor; conditions: PRMT5, MTA as cofactor; read-out: MTA IC50
[3] = test system: HAP1 MTAP-deleted cell line; experiment: Viability assay, MTAP-deleted cell line; type: cell-based; conditions: Homo sapiens, read-out: HAP1 MTAP deleted viability
Source text: Table 1 additionally indicates IC50 values in a viability assay for the MTAP-deleted cell line (column 10), indicating the effect of treatment with compound on cell survival.

[4] = test system: HAP1 MTAP-intact cell line; experiment: SDMA in-cell western assay, HAP1 MTAP-intact; type: cell-based; conditions: Homo sapiens, HAP1, SDMA in-cell western, HAP1 MTAP-intact; read-out: MTAP HAP1 intact IC50
Procedure, shortened: (§1)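 Isogenic HAP1 pair: the MTAP-intact line expresses endogenous MTAP, and the deleted line is MTAP-null. Symmetric dimethylarginine was detected by in-cell western and IC50 values derived for each line.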

[5] = test system: HAP1 MTAP-deleted cell line; experiment: SDMA in-cell western assay, HAP1 MTAP-deleted; type: cell-based; conditions: for IC50: Homo sapiens, HAP1, SDMA in-cell western, HAP1 MTAP-deleted; for MTAP intact/deleted ratio: SDMA in-cell western
Procedure, shortened: as §1

PRMT5 [6] = target: T1, PRMT5; experiment: PRMT5 biochemical IC50 assay with SAM as cofactor; conditions: PRMT5, SAM as cofactor; read-out: SAM IC50
[7] = read-out: HAP 1 MTAP deleted IC50
[8] = IC50 ratio HAP1 MTAP-intact / HAP1 MTAP-deleted
[9] = HAP1, viability assay, MTAP-deleted cell line
[10] = read-out: HAP1 MTAP deleted IC50
[11] = HAP1, viability assay, HAP1 MTAP-deleted

T1 sequence (O14744 whole entry): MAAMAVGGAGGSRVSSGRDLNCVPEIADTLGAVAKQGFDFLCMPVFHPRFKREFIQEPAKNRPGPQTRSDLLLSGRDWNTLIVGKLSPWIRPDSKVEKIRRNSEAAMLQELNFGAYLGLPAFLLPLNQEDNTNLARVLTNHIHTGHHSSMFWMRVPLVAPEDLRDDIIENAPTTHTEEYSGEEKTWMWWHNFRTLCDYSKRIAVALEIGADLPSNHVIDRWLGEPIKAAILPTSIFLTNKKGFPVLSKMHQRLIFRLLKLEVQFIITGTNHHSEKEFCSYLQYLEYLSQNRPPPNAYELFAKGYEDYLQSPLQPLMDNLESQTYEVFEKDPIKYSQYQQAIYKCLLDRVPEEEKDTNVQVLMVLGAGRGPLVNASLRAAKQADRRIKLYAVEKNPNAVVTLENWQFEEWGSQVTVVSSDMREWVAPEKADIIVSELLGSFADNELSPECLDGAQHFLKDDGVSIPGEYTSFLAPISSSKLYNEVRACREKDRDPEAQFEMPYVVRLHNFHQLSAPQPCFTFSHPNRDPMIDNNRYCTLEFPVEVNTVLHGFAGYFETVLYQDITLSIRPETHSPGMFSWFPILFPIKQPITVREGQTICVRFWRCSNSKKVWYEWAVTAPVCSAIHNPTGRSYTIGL
T1 sequence (Q9BQA1 whole entry partner): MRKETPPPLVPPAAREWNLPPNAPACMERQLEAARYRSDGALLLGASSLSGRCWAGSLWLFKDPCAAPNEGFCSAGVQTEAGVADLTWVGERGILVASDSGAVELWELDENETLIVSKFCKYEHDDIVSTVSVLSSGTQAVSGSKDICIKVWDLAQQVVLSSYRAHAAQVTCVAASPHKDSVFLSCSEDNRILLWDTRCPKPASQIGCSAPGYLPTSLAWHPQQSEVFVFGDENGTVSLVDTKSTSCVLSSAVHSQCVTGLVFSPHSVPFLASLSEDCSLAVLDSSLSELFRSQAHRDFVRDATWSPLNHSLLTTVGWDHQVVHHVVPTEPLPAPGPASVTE

Row | SMILES | IC50 (PRMT5 [1]; read-out: No Cofactor/rel IC50) | IC50 (PRMT5 [2]) | IC50 ([3]; HAP1, viability IC50, MTAP-deleted cell line) | IC50 [4] | IC50 [5, 7] | MTAP intact/deleted ratio [5, 8] | IC50 (PRMT5 [6]) | IC50 (PRMT5 [1]; read-out: No Cofactor/ rel IC50) | IC50 [3, 9] | IC50 [5, 10] | MTAP intact/deleted ratio ([5]; IC50 ratio HAP1 MTAP-intact vs HAP1 MTAP-deleted) | IC50 [3, 11]
1 | CC[C@@H]1CC[C@@H](c2ccccc2)N(C(=O)C(=O)Nc2cncc(C(N)=O)c2)C1 (single isomer, unassigned) [Compound 576] | > 500 nM | > 500 nM | > 10000 nM | > 1000 nM | > 1000 nM | C (an IC50 ratio of less than 3 fold) | > 500 nM | – | – | – | – | –
2 | Cc1cc(NC(=O)C(=O)N2C[C@H](C)CC[C@@H]2C)cnc1N (racemic) [Compound 168, N-(6-amino-5-methyl-3-pyridyl)-2-[(2S,5R)-2,5-dimethyl-1-piperidyl]-2-oxo-acetamide] | – | 50 to 500 nM | – | > 1000 nM | > 1000 nM | C (an IC50 ratio of less than 3 fold) | 50 to 500 nM | 50 to 500 nM | > 10000 nM | – | – | –
3 | Cc1cc(NC(=O)C(=O)N2C[C@H](C)CC[C@H]2c2ccc(CCN(C)C)cc2)cnc1N (racemic) [Compound 1233, N-(6-amino-5-methyl-3-pyridyl)-2-[2-[4-[2-(dimethylamino)ethyl]phenyl]-5-methyl-1-piperidyl]-2-oxo-acetamide] | 50 to 500 nM | < 50 nM | – | 100 to 1000 nM | – | – | 50 to 500 nM | – | < 1000 nM | < 100 nM | B (an IC50 ratio greater than or equal to 3 fold but lower than 10 fold) | –
4 | COc1ncc(NC(=O)C(=O)N2C[C@@H](C)CC[C@@H]2c2ccc3cnccc3c2)cc1C(N)=O (single isomer, unassigned) [Compound 914] | < 50 nM | < 50 nM | – | 100 to 1000 nM | < 100 nM | A (an IC50 ratio greater than or equal to 10 fold) | 50 to 500 nM | – | < 1000 nM | – | – | –
5 | CCc1cc(NC(=O)C(=O)N2C[C@H](C)CC[C@H]2c2ccc3[nH]cnc3c2)cnc1N (single isomer, unassigned) [Compound 771] | > 500 nM | > 500 nM | – | > 1000 nM | – | C (an IC50 ratio of less than 3 fold) | > 500 nM | – | – | > 1000 nM | – | > 10000 nM
6 | C[C@@H]1CC[C@@H](c2ccc3[nH]c(=O)ccc3c2)N(C(=O)C(=O)Nc2cncc(C(N)=O)c2)C1 (single isomer, unassigned) [Compound 804] | > 500 nM | > 500 nM | – | > 1000 nM | – | C (an IC50 ratio of less than 3 fold) | > 500 nM | – | – | > 1000 nM | – | > 10000 nM
7 | C[C@@H]1CC[C@@H](c2cccc(C(F)(F)F)c2)N(C(=O)C(=O)Nc2cncc(C(N)=O)c2)C1 (racemic) [Compound 265, rac-5-{2-[(2R,5S)-5-Methyl-2-[3-(trifluoromethyl)phenyl]piperidin-1-yl]-2-oxoacetamido}pyridine-3-carboxamide] | 50 to 500 nM | < 50 nM | – | > 1000 nM | – | A (an IC50 ratio greater than or equal to 10 fold) | 50 to 500 nM | – | 1000 to 10000 nM | 100 to 1000 nM | – | –
8 | CNc1nc2cc([C@@H]3CC[C@@H](C)CN3C(=O)C(=O)Nc3cnc(N)c(C)c3)ccc2s1 (single isomer, unassigned) [Compound 855] | > 500 nM | > 500 nM | – | > 1000 nM | – | C (an IC50 ratio of less than 3 fold) | > 500 nM | – | – | > 1000 nM | – | > 10000 nM
9 | C[C@@H]1CC[C@@H](c2ccc(F)c(F)c2)N(C(=O)C(=O)Nc2cncc(C(N)=O)c2)C1 (single isomer, unassigned) [Compound 474] | > 500 nM | > 500 nM | – | > 1000 nM | – | C (an IC50 ratio of less than 3 fold) | > 500 nM | – | > 10000 nM | > 1000 nM | – | –
10 | CCc1cc(NC(=O)C(=O)N2C[C@H](C)CC[C@H]2c2ccc(N)nc2)cnc1N (single isomer, unassigned) [Compound 856] | > 500 nM | > 500 nM | – | > 1000 nM | – | B (an IC50 ratio greater than or equal to 3 fold but lower than 10 fold) | > 500 nM | – | – | > 1000 nM | – | > 10000 nM
